Test results taken from the NIST ThermoML archive (doi:10.1016/j.tca.2009.06.015).
Numbers after ± are expanded uncertainties.

Assay: xn = mol fraction of the nth substance listed
Conditions: 101 kPa, Liquid; for viscosity: Capillary tube (Ostwald / Ubbelohde) method; for mass density: Vibrating tube method

CC#N [acetonitrile] + CC(C)O
Conditions	mass density, 298.15 K [kg/m3]	mass density, 303.15 K [kg/m3]	mass density, 308.15 K [kg/m3]	viscosity, 298.15 K [mPa·s]	viscosity, 303.15 K [mPa·s]	viscosity, 308.15 K [mPa·s]
x1 = 0.0496	780.76 ± 0.31	776.32 ± 0.31	771.86 ± 0.31	1.691 ± 0.018	1.474 ± 0.016	1.296 ± 0.013
x1 = 0.0906	780.3 ± 0.3	775.84 ± 0.31	771.31 ± 0.31	1.461 ± 0.015	1.288 ± 0.013	1.15 ± 0.012
x1 = 0.1529	779.7 ± 0.3	775.13 ± 0.31	770.57 ± 0.31	1.207 ± 0.013	1.069 ± 0.011	0.9576 ± 0.0098
x1 = 0.2022	779.7 ± 0.3	774.54 ± 0.31	769.92 ± 0.31	1.044 ± 0.011	0.9367 ± 0.0097	0.846 ± 0.0087
x1 = 0.2783	779.2 ± 0.3	773.97 ± 0.31	768.98 ± 0.31	0.8677 ± 0.0089	0.7975 ± 0.0083	0.7168 ± 0.0075
x1 = 0.3678	777.65 ± 0.31	772.88 ± 0.31	767.8 ± 0.31	0.7248 ± 0.0075	0.6615 ± 0.007	0.6057 ± 0.0063
x1 = 0.4768	778.79 ± 0.31	771.84 ± 0.31	766.44 ± 0.31	0.6062 ± 0.0064	0.5492 ± 0.0059	0.5051 ± 0.0054
x1 = 0.6132	776.2 ± 0.31	771.13 ± 0.31	765.75 ± 0.31	0.4735 ± 0.0051	0.4429 ± 0.0048	0.4111 ± 0.0045
x1 = 0.7714	775.79 ± 0.31	770.52 ± 0.31	765.26 ± 0.31	0.384 ± 0.0043	0.3617 ± 0.004	0.3442 ± 0.0038
x1 = 0.9207	775.95 ± 0.31	770.59 ± 0.31	765.18 ± 0.31	0.3499 ± 0.0039	0.3311 ± 0.0038	0.3202 ± 0.0036
x1 = 1	776.64 ± 0.31	771.21 ± 0.31	765.75 ± 0.31	0.3369 ± 0.0038	0.3254 ± 0.0037	0.3082 ± 0.0036
